Laboratory results as given in patent publication US7432260B2, “Pyrimidine compounds” (Cyclacel Limted, priority 2002, dated 2008).
pIC50: −log10 of the molar value.

Tests used:
CDK1/cyclin B = CDK1/cyclin B (Homo sapiens, UniProt P06493); test: Kinase assay CDK1/cyclin B; type: biochemical; details: Table 2; read-out: Kinase Inhibition IC50 CDK1 cyclin B
Outline: (§1)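 Recombinant kinase (2-4 μg) with polypeptide substrate in pH 7.4 MOPS/β-glycerophosphate buffer; started with 15 mM MgCl2 + 100 μM ATP plus [γ-32P]-ATP, incubated at 30° C. Stopped on ice, filtered, washed in orthophosphoric acid; incorporated 32P counted by scintillation.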

CDK9/cyclin T1 = CDK9/cyclin T1 (Homo sapiens, UniProt P50750); test: CDK9 assay; type: biochemical; details: Table 2; read-out: Kinase Inhibition IC50 CDK9 cyclin T1
Outline: (§2)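 Radiometric filter-binding format: test compound at varying amounts incubated with CTD peptide (biotinyl-Ahx-(YSPTSPS)4-NH2) and either CDK9/cyclin T1 or CDK7/cyclin H, using 100 μM ATP spiked with 32P, 45 min, 30 °C, pH 7.2. Reactions were stopped on ice, bound to avidin, filtered on P81 plates and scintillation-counted.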

PLK-1 = PLK-1 (Homo sapiens, UniProt P53350); test: Kinase assay PLK-1; type: biochemical; details: Table 2; read-out: Kinase Inhibition IC50 PLK-1
Experimental: (§3) Kinase assays. […] This was achieved by measurement of incorporation of radioactive phosphate from ATP into appropriate polypeptide substrates. Recombinant protein kinases and kinase complexes were produced or obtained commercially. Assays were performed using 96-well plates and appropriate assay buffers (typically 25 mM β-glycerophosphate, 20 mM MOPS, 5 mM EGTA, 1 mM DTT, 1 mM […], pH 7.4), into which were added 2-4 μg of active enzyme with appropriate substrates. The reactions were initiated by addition of Mg/ATP mix (15 mM MgCl2+100 μM ATP with 30-50 kBq per well of [γ-^32P]-ATP) and mixtures incubated as required at 30° C. Reactions were stopped on ice, followed by filtration through p81 filterplates or GF/C filterplates (Whatman Polyfiltronics, Kent, UK). After washing 3 times with 75 mM aq orthophosphoric acid, plates were dried, scintillant added and incorporated radioactivity measured in a scintillation counter (TopCount, Packard Instruments, Pangbourne, Berks, UK). Compounds for kinase assay were made-up as 10 mM stocks in DMSO and diluted into 10% DMSO inrassay buffer.

A549 = test: 72-h MTT cytotoxicity assay A549; type: cell-based; details: Homo sapiens, A549, 72 h, Table 4
Outline: (§4)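 MTT viability, 72 h compound exposure at 37° C; triplicate wells, 1/3 serial dilutions from DMSO stocks; seeding density per doubling time; MTT 4 h in dark; DMSO solubilisation.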

CDK2/cyclin E = CDK2/cyclin E (Homo sapiens, UniProt P24941); test: Kinase assay CDK2/cyclin E; type: biochemical; details: Table 2; read-out: Kinase Inhibition IC50 CDK2 cyclin E
Outline: as §1

HT29 = test: 72-h MTT cytotoxicity assay HT29; type: cell-based; details: Homo sapiens, HT-29, 72 h, Table 4
Outline: as §4

CDK7/cyclin H = CDK7/cyclin H (Homo sapiens, UniProt P50613); test: CDK7 assay; type: biochemical; details: Table 2; read-out: Kinase Inhibition IC50 CDK7 cyclin H
Outline: as §2

GSK-3β = GSK-3β (Homo sapiens, UniProt P49841); test: Kinase assay GSK-3β; type: biochemical; details: Table 2; read-out: Kinase Inhibition IC50 GSK-3β
Experimental: as §3

CDK4/cyclin D1 = CDK4/cyclin D1 (Homo sapiens, UniProt P11802); test: Kinase assay CDK4/cyclin D1; type: biochemical; details: Table 2; read-out: Kinase Inhibition IC50 CDK4 cyclin D1
Outline: as §1

CDK2/cyclin A = CDK2/cyclin A (Homo sapiens, UniProt P24941); test: Kinase assay CDK2/cyclin A; type: biochemical; details: Table 2; read-out: Kinase Inhibition IC50 CDK2 cyclin A
Outline: as §1

Saos-2 = test: 72-h MTT cytotoxicity assay Saos-2; type: cell-based; details: Homo sapiens, SAOS-2, 72 h, Table 4
Outline: as §4

Chain of GSK-3β (P49841 whole entry): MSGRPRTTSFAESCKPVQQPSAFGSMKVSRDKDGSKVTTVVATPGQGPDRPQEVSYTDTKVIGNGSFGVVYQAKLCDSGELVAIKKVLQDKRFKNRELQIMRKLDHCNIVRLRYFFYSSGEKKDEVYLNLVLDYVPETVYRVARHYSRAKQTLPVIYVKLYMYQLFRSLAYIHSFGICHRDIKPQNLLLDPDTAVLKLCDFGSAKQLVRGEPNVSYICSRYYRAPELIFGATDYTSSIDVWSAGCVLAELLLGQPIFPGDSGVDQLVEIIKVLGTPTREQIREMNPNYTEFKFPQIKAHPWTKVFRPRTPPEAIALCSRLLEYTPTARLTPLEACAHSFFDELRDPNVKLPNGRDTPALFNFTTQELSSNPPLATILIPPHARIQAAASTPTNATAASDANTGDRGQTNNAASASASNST
Chain of PLK-1 (P53350 whole entry): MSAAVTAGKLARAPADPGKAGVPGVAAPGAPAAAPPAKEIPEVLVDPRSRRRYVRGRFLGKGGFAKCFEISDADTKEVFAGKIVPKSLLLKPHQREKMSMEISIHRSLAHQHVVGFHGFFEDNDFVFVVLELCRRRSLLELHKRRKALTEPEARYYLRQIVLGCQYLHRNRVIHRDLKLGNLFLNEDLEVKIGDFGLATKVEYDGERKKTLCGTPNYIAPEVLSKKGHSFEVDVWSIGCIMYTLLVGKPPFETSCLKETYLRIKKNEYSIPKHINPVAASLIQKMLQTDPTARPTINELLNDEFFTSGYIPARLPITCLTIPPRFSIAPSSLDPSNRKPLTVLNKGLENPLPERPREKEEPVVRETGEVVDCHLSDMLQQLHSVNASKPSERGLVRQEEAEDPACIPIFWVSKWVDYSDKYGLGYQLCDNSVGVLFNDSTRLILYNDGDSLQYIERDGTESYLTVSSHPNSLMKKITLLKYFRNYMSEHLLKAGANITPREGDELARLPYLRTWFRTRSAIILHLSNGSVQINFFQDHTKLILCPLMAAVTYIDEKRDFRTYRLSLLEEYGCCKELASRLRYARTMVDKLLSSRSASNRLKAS
Chain of CDK7/cyclin H (P50613 whole entry): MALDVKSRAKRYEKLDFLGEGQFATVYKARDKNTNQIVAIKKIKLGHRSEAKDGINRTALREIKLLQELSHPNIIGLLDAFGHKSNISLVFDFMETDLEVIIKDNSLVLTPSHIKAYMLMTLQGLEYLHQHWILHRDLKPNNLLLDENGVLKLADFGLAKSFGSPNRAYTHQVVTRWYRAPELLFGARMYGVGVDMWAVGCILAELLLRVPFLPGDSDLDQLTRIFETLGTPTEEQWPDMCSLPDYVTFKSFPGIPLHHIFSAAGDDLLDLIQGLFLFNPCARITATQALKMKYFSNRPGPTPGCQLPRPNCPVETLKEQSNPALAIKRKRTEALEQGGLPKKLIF
Chain of CDK1/cyclin B (P06493 whole entry): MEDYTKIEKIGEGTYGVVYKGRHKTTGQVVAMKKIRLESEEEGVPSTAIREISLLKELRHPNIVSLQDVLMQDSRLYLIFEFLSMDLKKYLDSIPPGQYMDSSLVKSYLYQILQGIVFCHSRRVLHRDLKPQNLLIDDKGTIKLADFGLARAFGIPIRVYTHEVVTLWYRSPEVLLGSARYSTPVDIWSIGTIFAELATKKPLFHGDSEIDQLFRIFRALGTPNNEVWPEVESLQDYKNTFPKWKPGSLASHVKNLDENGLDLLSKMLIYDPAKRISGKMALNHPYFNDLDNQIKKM
Chain of CDK1/cyclin B (P14635 whole entry partner): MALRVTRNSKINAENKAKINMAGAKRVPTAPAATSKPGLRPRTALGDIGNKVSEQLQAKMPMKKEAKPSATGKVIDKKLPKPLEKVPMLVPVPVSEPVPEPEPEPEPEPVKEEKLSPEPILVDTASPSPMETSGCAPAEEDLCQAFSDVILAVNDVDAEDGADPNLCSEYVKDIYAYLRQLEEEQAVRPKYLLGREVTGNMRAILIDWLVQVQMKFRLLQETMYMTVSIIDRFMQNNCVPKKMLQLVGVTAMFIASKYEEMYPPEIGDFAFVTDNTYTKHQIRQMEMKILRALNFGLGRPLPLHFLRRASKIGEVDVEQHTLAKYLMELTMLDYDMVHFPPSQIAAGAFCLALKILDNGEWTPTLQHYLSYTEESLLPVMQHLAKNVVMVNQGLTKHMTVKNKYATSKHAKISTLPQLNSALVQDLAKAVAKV
Chain of CDK4/cyclin D1 (P11802 whole entry): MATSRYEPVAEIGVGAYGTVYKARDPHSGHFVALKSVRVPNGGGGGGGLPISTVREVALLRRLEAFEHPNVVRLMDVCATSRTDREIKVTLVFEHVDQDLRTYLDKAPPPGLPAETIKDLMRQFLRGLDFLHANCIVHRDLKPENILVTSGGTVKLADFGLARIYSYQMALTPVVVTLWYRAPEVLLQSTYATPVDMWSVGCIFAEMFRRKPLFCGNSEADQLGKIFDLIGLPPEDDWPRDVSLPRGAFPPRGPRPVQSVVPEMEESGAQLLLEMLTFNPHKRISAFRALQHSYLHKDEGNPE
Chain of CDK4/cyclin D1 (P24385 whole entry partner): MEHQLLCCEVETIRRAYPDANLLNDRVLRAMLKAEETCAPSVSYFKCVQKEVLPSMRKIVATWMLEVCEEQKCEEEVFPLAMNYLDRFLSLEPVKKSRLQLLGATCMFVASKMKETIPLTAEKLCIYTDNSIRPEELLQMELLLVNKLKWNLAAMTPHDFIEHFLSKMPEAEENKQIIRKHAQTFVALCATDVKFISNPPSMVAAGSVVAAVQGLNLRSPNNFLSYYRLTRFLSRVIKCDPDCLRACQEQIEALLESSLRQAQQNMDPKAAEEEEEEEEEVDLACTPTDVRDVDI
Chain of CDK9/cyclin T1 (P50750 whole entry): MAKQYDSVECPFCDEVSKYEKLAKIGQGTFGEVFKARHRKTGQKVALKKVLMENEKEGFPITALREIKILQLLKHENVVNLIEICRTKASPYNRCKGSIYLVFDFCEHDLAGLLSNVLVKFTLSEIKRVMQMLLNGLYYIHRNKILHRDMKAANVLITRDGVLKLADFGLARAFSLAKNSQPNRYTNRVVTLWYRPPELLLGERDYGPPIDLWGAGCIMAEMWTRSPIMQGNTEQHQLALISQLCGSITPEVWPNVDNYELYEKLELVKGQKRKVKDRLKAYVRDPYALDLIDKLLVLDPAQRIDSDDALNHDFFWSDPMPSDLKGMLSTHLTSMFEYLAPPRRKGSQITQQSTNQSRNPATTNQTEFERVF
Chain of CDK9/cyclin T1 (O60563 whole entry partner): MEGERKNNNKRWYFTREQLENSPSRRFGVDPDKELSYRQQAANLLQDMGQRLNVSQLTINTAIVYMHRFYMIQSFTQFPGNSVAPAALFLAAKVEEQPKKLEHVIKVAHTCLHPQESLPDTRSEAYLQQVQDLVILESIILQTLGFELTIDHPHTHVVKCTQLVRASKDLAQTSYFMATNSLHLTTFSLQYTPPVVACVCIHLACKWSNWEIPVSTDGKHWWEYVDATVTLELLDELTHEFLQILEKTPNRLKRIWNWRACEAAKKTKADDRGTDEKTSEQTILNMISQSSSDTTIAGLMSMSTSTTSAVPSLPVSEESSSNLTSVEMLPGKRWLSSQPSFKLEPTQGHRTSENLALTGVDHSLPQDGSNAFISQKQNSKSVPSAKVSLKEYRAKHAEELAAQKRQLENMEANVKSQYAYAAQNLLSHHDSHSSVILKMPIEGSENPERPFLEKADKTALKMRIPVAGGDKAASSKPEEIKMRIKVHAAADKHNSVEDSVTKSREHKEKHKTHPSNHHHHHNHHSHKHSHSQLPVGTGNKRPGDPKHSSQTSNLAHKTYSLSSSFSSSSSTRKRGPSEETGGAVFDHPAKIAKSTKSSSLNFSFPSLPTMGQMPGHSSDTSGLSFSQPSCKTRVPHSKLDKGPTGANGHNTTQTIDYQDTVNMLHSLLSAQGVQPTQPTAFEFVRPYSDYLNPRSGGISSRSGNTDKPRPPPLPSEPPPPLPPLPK

Structure (SMILES)	pIC50 (CDK1/cyclin B)	pIC50 (CDK9/cyclin T1)	pIC50 (PLK-1)	pIC50 (A549)	pIC50 (CDK2/cyclin E)	pIC50 (HT29)	pIC50 (CDK7/cyclin H)	pIC50 (GSK-3β)	pIC50 (CDK4/cyclin D1)	pIC50 (CDK2/cyclin A)	pIC50 (Saos-2)	melting point [°C]
Cc1nc(C)c(-c2ccnc(Nc3ccc(N4CCN(CCCO)CC4)cc3)n2)s1 [Compound 8, 3-(4-{4-[4-(2,4-Dimethyl-thiazol-5-yl)-pyrimidin-2-ylamino]-phenyl}-piperazin-1-yl)-propan-1-ol]	5.31	6.29	< 3.82	6.21	5.92	6.10	6.01	4.41	6.44	5.96	6.42	–
Cc1nc(C)c(-c2ccnc(Nc3ccc(N4CCN(C)CC4)cc3)n2)s1 [Compound 12, [4-(2,4-Dimethyl-thiazol-5-yl)-pyrimidin-2-yl]-[4-(4-methyl-piperazin-1-yl)-phenyl]-amine]	5.38	6.55	4.26	6.15	5.74	6.13	5.96	4.28	6.72	6.00	6.37	–
Cc1nc(NC(=O)CCN2CCOCC2)sc1-c1ccnc(Nc2ccc(F)cc2)n1 [Compound 21, N-{5-[2-(4-Fluoro-phenylamino)-pyrimidin-4-yl]-4-methyl-thiazol-2-yl}-3-morpholin-4-yl-propionamide]	6.27	6.34	< 3.70	5.07	7.01	5.39	5.31	4.85	5.89	6.49	5.37	–
Cc1nc(NC(=O)CCN2CCOCC2)sc1-c1ccnc(Nc2cccc([N+](=O)[O-])c2)n1 [Compound 22, N-{4-Methyl-5-[2-(3-nitro-phenylamino)-pyrimidin-4-yl]-thiazol-2-yl}-3-morpholin-4-yl-propionamide]	6.62	6.96	< 4.00	6.09	8.60	6.28	6.70	6.60	5.77	7.01	6.22	–
Cc1nc(NC(=O)CCN2CCN(C)CC2)sc1-c1ccnc(Nc2cccc([N+](=O)[O-])c2)n1 [Compound 23, N-{4-Methyl-5-[2-(3-nitro-phenylamino)-pyrimidin-4-yl]-thiazol-2-yl}-3-(4-methyl-piperazin-1-yl)-propionamide]	5.51	6.40	4.62	5.42	6.72	5.96	6.09	5.92	5.52	5.85	5.36	–
Cc1nc(C)c(-c2ccnc(Nc3ccc(NC(=O)CCl)cc3)n2)s1 [Compound 50, 2-Chloro-N-{4-[4-(2,4-dimethyl-thiazol-5-yl)-pyrimidin-2-ylamino]-phenyl}-acetamide]	5.47	8.74	–	6.80	6.41	6.80	4.89	–	6.02	6.05	6.80	217 to 219
Cc1nc(N2CCOCC2)sc1-c1ccnc(Nc2ccc(N3CCOCC3)cc2)n1 [Compound 56, [4-(4-Methyl-2-morpholin-4-yl-thiazol-5-yl)-pyrimidin-2-yl]-(4-morpholin-4-yl-phenyl)-amine]	4.74	4.77	–	5.36	6.22	5.54	6.07	< 4.00	7.66	4.17	5.30	229 to 231
CNc1nc(C)c(-c2ccnc(Nc3ccc(CCO)cc3)n2)s1 [Compound 59, 2-{4-[4-(4-Methyl-2-methylamino-thiazol-5-yl)-pyrimidin-2-ylamino]-phenyl}-ethanol]	6.15	6.33	–	5.62	6.85	5.77	5.59	5.66	7.07	6.96	5.72	216 to 218
CNc1nc(C)c(-c2ccnc(Nc3cccc(CNC(C)=O)c3)n2)s1 [Compound 63, N-{3-[4-(4-Methyl-2-methylamino-thiazol-5-yl)-pyrimidin-2-ylamino]-benzyl}-acetamide]	4.32	5.57	4.34	6.01	–	5.85	4.70	5.06	5.11	4.92	5.92	253 to 255
CCNc1nc(C)c(-c2ccnc(Nc3cccc(CNC(C)=O)c3)n2)s1 [Compound 64, N-{3-[4-(2-Ethylamino-4-methyl-thiazol-5-yl)-pyrimidin-2-ylamino]-benzyl}-acetamide]	6.13	7.00	4.74	6.72	7.10	6.39	6.23	5.68	6.89	6.51	6.47	–
CCNc1nc(C)c(-c2ccnc(Nc3cccc(CN)c3)n2)s1 [Compound 65, (3-Aminomethyl-phenyl)-[4-(2-ethylamino-4-methyl-thiazol-5-yl)-pyrimidin-2-yl]-amine]	–	–	< 4.00	5.49	6.48	5.32	–	–	6.96	–	6.19	290 to 292
CC(=O)NCc1cccc(Nc2nccc(-c3sc(C)nc3C)n2)c1 [Compound 66, N-{3-[4-(2,4-Dimethyl-thiazol-5-yl)-pyrimidin-2-ylamino]-benzyl}-acetamide]	6.92	–	–	–	6.96	–	5.68	–	6.20	7.00	–	206 to 207
CNc1nc(C)c(-c2ccnc(Nc3cccc(CN)c3)n2)s1 [Compound 67, (3-Aminomethyl-phenyl)-[4-(4-methyl-2-methylamino-thiazol-5-yl)-pyrimidin-2-yl]-amine]	–	–	< 4.00	4.85	6.38	4.85	–	–	6.62	–	5.96	287 to 289
